Experimental data reported in patent US11617748B2, “Meclozine derivatives and diclazuril derivatives for use in the prevention and/or the treatment of disorders associated to the inflammation induced by P. acnes” (priority 2016, dated 2023).

What was measured:
HaCaT cells = assay: MTT cell viability assay on HaCaT keratinocytes; type: cell-based, human
Method: Cell culture, pretreatment and stimulation. The immortalized human keratinocyte cell line HaCaT, fibroblast MRC5 were grown in Dulbecco's modified Eagle's medium-Glutamax-I (DMEM) with 1 mM sodium pyruvate. […] DMEM and RPMI were supplemented with 0.1% and 10% heat-inactivated fetal calf serum (Invitrogen), and an antibiotic/antimycotic solution (10 U/ml Pencillin, 10 μg/ml Streptomycin, 0.25 μg/ml Amphoterin) at 37° C. in humidified atmosphere containing 5% CO2 as described (Life Technologie). Primary human keratinocytes (NHDK) and fibroblast (HDF) were grown in the KGM-Gold and in FGM-2 Bullet Kit, respectively, as described by the manufacturer (Lonza). The immortalized cell lines were routinely tested to assess the absence of Mycoplasma infection. Cells, cultivated in 6- or 96-well polystyrene plates, were pretreated with appropriate molecule solution for 1 to 48 h at 37° C. in the dark at the appropriate concentration. Then, for stimulation, cells were incubated for 15 min to 24 h with the P. acnes suspension adjusted at the appropriate concentration at 37° C. in 5% CO2. For experiences using an in vitro model of psoriasis, the primary human keratinocytes (NHDK) were grown in culture medium for 24 hours.
Cell viability assays. Viability of cells was estimated by using the MTT assay where cells were incubated with a 0.2% MTT solution in cell culture medium for 4 h at 37° C. The MTT solution was then discarded and DMSO added to solubilize the MTT-formazan cristals produced in living cells. After thorough mixing, the absorbance was measured at 540 nm.

Cox-2 = assay: Western blot of Cox-2 expression in P. acnes-stimulated HaCaT cells; type: cell-based, human; details: 25 μM, 24 h pre-treatment
Method: (§1) Western Blot analysis. Whole cell protein extracts (25 μg) were separated by electrophoresis (LDS-PAGE) under denaturing conditions with NuPAGE Novex 4-12% Bis-Tris gel (1 mm, 12 wells, Invitrogen, UK) and proteins were transferred onto nitrocellulose membranes and saturated in 20 ml of saturation buffer consisting of TBS 1× (Tris Buffered Saline) containing 200 mM Tris, 1.4 M NaCl (pH 7.6), 5% no fat milk, 0.1% Tween 20 for 1 h. […] After washing to remove unbound antibodies, bound primary antibodies were detected by incubation for 1 h using secondary antibody against rabbit- and mouse IgG (Santa Cruz Biotechnology, SC-2357, 1:5000 and SC-2005, 1:5000, respectively). Unbound material was removed by washing and peroxidase activity was detected in a chemiluminescence assay (WesternBright ECL, Advansta, Menlo Park, USA). […]

PPARα = assay: Western blot of PPARα expression in P. acnes-stimulated HaCaT cells; type: cell-based, human; details: 25 μM, 24 h pre-treatment
Method: as §1

IL-1β production = assay: PGN- and LTA-induced IL-1β production in ThP-1 monocytes (ELISA); type: cell-based, human; details: ThP-1, 6.25 μM, 24 h pre-treatment, PGN or LTA 5-20 μg/ml
Method: ELISA. Human IL-1β, IL-8, hBD-2 and TNF-α protein concentration were measured in the supernatants of stimulated cells using various ELISA Sets (all from Ready-Set-Go from eBioscience, except hBD-2 measurements: Human DEFB4A/BD-2 ELISA Kit from LSBio) according to the manufacturer's instructions. We used serial dilutions of recombinant human IL-1β, IL-8, hBD-2 and TNF-α for standard curve. The optical density was determined at 450 nm at a wavelength correction of 540 nm.

[1] = test system: P. acnes-induced ear inflammation; assay: In vivo model of P. acnes-induced inflammation in mouse ears; details: mice; for decrease of the ear inflammation: topical, each day for 3 days, score over 96 h
Method: This model is based on the capacity of mouse ears to react while P. acnes is intradermally injected. The inflammatory reaction is evaluated each day over a period of 4 days after P. acnes injection by measuring the thickness of the ears, the redness as well as the presence of a desquamation and/or small pustules. At the end of the experiment, final measurement of inflammation was realized and photographic pictures of ears were taken. Then, mice were euthanized and ears were immediately fixed in a formalin-containing buffer for a future histological analysis. The experimental design consisted of 3 groups containing 10 mice each. 1) PBS corresponds to the non-treated group injected with PBS. 2) PA+Vehicle TOPIC corresponds to P. acnes injected in ears treated with Vaseline alone. 3) PA+diclazuril corresponds to P. acnes injected in ears treated with 1.3% diclazuril mixed with Vaseline. The preparation of the 1.3% diclazuril gel consisted of extemporaneously gently mixing 6.5 mg of diclazuril with […] for 1 min at room temperature (21° C.) and then directly applied to the mouse ears. This model is based on the capacity of mouse ears to react while P. acnes is intradermally injected. The inflammatory reaction is evaluated each day over a period of 4 days after P. acnes injection by measuring the thickness of the ears, the redness as well as the presence of a desquamation and/or small pustules. At the end of the experiment, final measurement of inflammation was realized and photographic pictures of ears were taken. Then, mice were euthanized and ears were immediately fixed in a formalin-containing buffer for a future histological analysis.

[2] = 1% meclozine gel topical, vs PA+Vehicle

Question: For `Cc1cccc(CN2CCN(C(c3ccccc3)c3ccc(Cl)cc3)CC2)c1` (stereo not drawn) [meclozine, Meclozine], which “impact on cell viability (MTT), 48 h pre-treatment” value (HaCaT cells) is on record?
Answer: Its value is “without any major impact on cell viability”.

Question: What about the “expression of Cox-2” value (Cox-2) of the same molecule?
Answer: Its value is “strongly decrease”.

Question: What about the “expression of PPARα” value (PPARα) of the same molecule?
Answer: Its value is “strongly decrease”.

Question: What about the “decrease of IL-1β production (average)” value (IL-1β production) of the same molecule?
Answer: Its value is 36%.

Question: And the “decrease of the ear inflammation” value ([1]; 1% meclozine gel (Vaseline, DMSO, Solutol/water))?
Answer: Its value is 29.5%.

Question: And the “ear thickness (histological analysis)” value [1, 2]?
Answer: The value was “decrease”.

Question: And the “leukocyte infiltration (histological analysis)” value [1, 2]?
Answer: Its value is “decrease”.

Question: With `N#CC(c1ccc(Cl)cc1)c1c(Cl)cc(-n2ncc(=O)[nH]c2=O)cc1Cl` (stereo not drawn) [diclazuril, Diclazuril] as the molecule, how does the “impact on cell viability (MTT), 48 h pre-treatment” value (HaCaT cells) read?
Answer: Its value is “without any major impact on cell viability”.

Question: And the “expression of Cox-2” value (Cox-2)?
Answer: The value was “decrease”.

Question: And the “expression of PPARα” value (PPARα)?
Answer: The value was “no change”.

Question: And the “decrease of IL-1β production (average)” value (IL-1β production)?
Answer: The value was 64%.

Question: And the “decrease of the ear inflammation” value ([1]; 1.3% diclazuril in Vaseline)?
Answer: The value was 37%.
